Paper PMC9053816, “A polypeptide model for toxic aberrant proteins induced by aminoglycoside antibiotics” (PLoS ONE, 2022)
Entries after “also recorded” stand apart in the source; their conditions may differ. Read-outs that look alike come from different tables or passages of the source.

Experiments:
E. coli DnaK = settings: by comparison with NR and σ32 peptides; cited from earlier work
E. coli BL21 nucleoids [1] = tested on: E. coli BL21 nucleoids; set-up: method as in PMID 25250841; settings: transcription inhibited; cited from earlier work
E. coli BL21 [2] = experiment: Growth analysis (culture OD600); type: cell-based, Escherichia coli
Experimental: (§1) All growth studies were performed in Luria-Bertani (LB) broth containing Penicillin G (150 μg/ml), using E. coli BL21 as the host strain except where noted. Frozen stocks of cell strains were first grown overnight at 30°C, without shaking, in 2 ml of LB containing PenG. The starter cultures were then diluted 1:100 in 3.5 ml of LB containing PenG, in plastic 15x90 mm tubes with loose-fitting caps, and the tubes were then tilted about 15–20 degrees from vertical and incubated at 37°C with shaking (300 rpm). Cell growth for all experiments except those shown in Fig 1 was monitored at the indicated times by measuring the optical density of culture samples (diluted 1:10 in saline) at 600 nm, using a Perkin Elmer Lambda 14 UV/VIS spectrophotometer and semi-micro glass cuvettes (1 ml sample volume). For the experiments shown in Fig 1, OD600 measurements were performed on 200 μl of undiluted culture using a 96-well plate reader. […] To measure cell viability, culture samples were serially diluted in LB broth, mixed with molten top agar and plated on LB agar containing PenG. The number of colonies was then counted after overnight incubation of plates at 37°C.

E. coli BL21 [3] = experiment: Cell viability (colony counts / spot dilution on LB agar); type: cell-based, Escherichia coli
Experimental: as §1
Supplementary file pone.0258794.s001.tif: S1 Fig Bactericidal effect of Kanamycin. Samples of an E. coli BL21 culture growing in LB broth were treated at early log phase (T = 0) with Cm (30 μg/ml) or Kan (50 μg/ml). After further incubation at 37°C for 30 or 60 min, samples of the untreated (UT) and antibiotic-treated cultures were diluted (serial 1:10), and 3 μl of each dilution was spotted onto an LB agar plate. The plate was then photographed after incubation overnight at 37°C. (TIF) Click here for additional data file.

E. coli BL21 nucleoids [4] = experiment: Nucleoid conformation by fluorescence microscopy; type: cell-based, Escherichia coli; settings: for Nucleoid conformation: H33342 staining, BL21 (Fig 6, S6 Fig)
Experimental: (§2) Culture samples (0.3 ml) collected at the indicated times were centrifuged and the cell pellets were resuspended in 20–100 μl of Tris-buffered saline pH 8 (TBS) and held on ice. Cell suspensions were then stained with 1 μl of Hoechst 33342 (10 mg/ml stock solution was first diluted 1:100 in TBS). After incubation for 10 min on ice, 2 μl samples of cell suspension were mounted on coverslides using agarose blocks as described. Cells were then examined by epi-fluorescence microscopy, using a Zeiss Axiophot and a 63X oil immersion lens. Exposure times for 2-channel images (both transmitted and reflected light) were set automatically using on-board Zen 2011 software. In some experiments as noted, exposure times for reflected light images were fixed at 1 s, for comparison of relative fluorescence intensity. Brightfield images of E. coli cell aggregates were taken with a Nikon Eclipse T2 inverted microscope using a 20X lens and laser-based LED white light source, located at the Brookhaven National Laboratory Center for Functional Nanomaterials.
A culture sample also was left untreated (UT) for comparison. Cell samples were then collected after further incubation for 20, 40 or 60 min, washed with PBS, stained with H33342, and mounted on glass slides under agarose pads for fluorescence microscopy using a 40X oil immersion lens. The exposure time for each image was automatically set by microscope software. Scale bar = 20 μm. (TIF) Click here for additional data file.

E. coli BL21 cells = experiment: Hoechst 33342 uptake by fluorescence microscopy; type: cell-based, Escherichia coli
Experimental: as §2

Experimental for σ32 transcription factor: E, Western blot analysis of σ32 levels in cells following exposure to the indicated antibiotics for 20, 60, or 120 min as indicated. Cell extract from a non-induced culture was loaded in lane 1.
Equal volumes of cell cultures were centrifuged, and cell pellets were resuspended directly in 2X Laemmli sample buffer at a concentration of 5 OD600 units per ml based on culture OD600 at the time of sampling. To reduce viscosity, samples were sonicated using a cuphorn sonicator or passed through a 27-gauge needle prior to loading on SDS-polyacrylamide gels. Proteins were visualized either by staining gels directly with Coomassie Blue or after semi-dry electroblotting to immobilon membranes for Western blot analysis. Anti-σ32 monoclonal antibodies were purchased from BioLegend, San Diego, CA. Rabbit anti-DnaK and DnaJ serum was kindly provided by B. Bukau. Anti-GroEL antibodies were purchased from Sigma-Aldrich.
An aliquot of culture also was left untreated (NI) for comparison. Cultures were then incubated at 37°C with shaking, and cell growth was monitored by measuring culture optical density at 600 nm (OD600) using a microplate reader. B, samples of each culture were collected at 20, 60 and 90 min after treatment, and cells were lysed in 2X SDS-PAGE sample buffer at a concentration of 1.2 OD600 units per ml. Equal volumes of each sample were then analyzed by Western blotting, using antibodies against σ32 and σ70. Only the 20 min and 60 min samples of the Spectinomycin-treated culture were analyzed.

**Q.** Which “Recognition by DnaK (earlier studies)” value (E. coli DnaK) does the source give for Kemptide here?
**A.** The value was “poorly recognized”.

**Q.** Which Nucleoid conformation (E. coli BL21 nucleoids [1]) does the source give for `CO[C@H]1/C=C/O[C@@]2(C)Oc3c(C)c(O)c4c(O)c(c(/C=N/N5CCN(C)CC5)c(O)c4c3C2=O)NC(=O)/C(C)=C\C=C\[C@H](C)[C@H](O)[C@@H](C)[C@@H](O)[C@@H](C)[C@H](OC(C)=O)[C@@H]1C` [rifampicin] here?
**A.** The Nucleoid conformation was “transient condensation”.

**Q.** With `Cc1c2c(c(O)c3c(O)cccc13)C(=O)[C@]1(O)C(=O)C(C(N)=O)=C(O)[C@@H](N(C)C)[C@@H]1C2` [aTc, anhydrotetracycline] as the molecule, how does the Cell growth (E. coli BL21 [2]; 0.2 μg/ml in culture medium) read?
**A.** Its Cell growth is “not inhibited; also recorded: does not inhibit growth”.

**Q.** For `CN[C@@H]1[C@H](O)[C@H](NC)[C@H]2O[C@@]3(O)C(=O)C[C@@H](C)O[C@H]3O[C@@H]2[C@H]1O` [spectinomycin], which “σ32 levels following exposure” value (σ32 transcription factor; non-resistant cells, 20 μg/ml, 20 and 60 min (S2 Fig)) is on record?
**A.** The value was “unchanged”.

**Q.** For `NC[C@H]1O[C@H](O[C@H]2[C@H](O)[C@@H](O[C@H]3O[C@H](CO)[C@@H](O)[C@H](N)[C@H]3O)[C@H](N)C[C@@H]2N)[C@H](O)[C@@H](O)[C@@H]1O` [Kan, kanamycin], which Cell division (E. coli BL21 [2]; low dose 3 μg/ml) is on record?
**A.** The Cell division was “slowed but did not completely halt cell division”.

**Q.** What about the “Decrease of cell viability” value (E. coli BL21 [3]; first hour of exposure, Kan 50 μg/ml (S1 Fig)) of the same molecule?
**A.** Its value is 5–6 orders of magnitude.

**Q.** And the Nucleoid conformation (E. coli BL21 nucleoids [4])?
**A.** Its Nucleoid conformation is “only transient”.

**Q.** And the “σ32 concentration over time” value (σ32 transcription factor; 20, 60 or 120 min of exposure (Fig 1E))?
**A.** Its value is “remained elevated”.

**Q.** And the “σ32 level in cells” value (σ32 transcription factor; 60 min after exposure, range of doses (Fig 1D))?
**A.** Its value is “accumulated to high relative concentration”.

**Q.** For `O=C(N[C@H](CO)[C@H](O)c1ccc([N+](=O)[O-])cc1)C(Cl)Cl` [Cm, chloramphenicol], which “Cell viability following growth arrest” value (E. coli BL21 [3]; 30 μg/ml, samples at 0, 1, 2 and 5 h (Fig 2E)) is on record?
**A.** Its value is “remained viable for several hours”.

**Q.** And the “Cell viability during exposure” value (E. coli BL21 [3]; Cm 30 μg/ml, 30 or 60 min (S1 Fig))?
**A.** Its value is “fully retained”.

**Q.** What about the “Cell viability at higher concentration” value (E. coli BL21 [3]; higher concentration than 30 μg/ml (200 μg/ml, Fig 2E)) of the same molecule?
**A.** Its value is “increasingly toxic”.

**Q.** And the “Exposure time set automatically by camera software (H33342 fluorescence)” value (E. coli BL21 cells; 10 min after ARF48 induction or 60 min after Cm 30 or 200 μg/ml, non-induced culture 1.7 s)?
**A.** Its value is 0.22 s.

**Q.** And the “Uptake of H33342 following exposure” value (E. coli BL21 cells; Cm 30 or 200 μg/ml (Fig 6))?
**A.** The value was “enhanced”.

**Q.** And the Nucleoid conformation (E. coli BL21 nucleoids [4])?
**A.** Its Nucleoid conformation is “radially condensed”.

**Q.** What about the “Time until nucleoids radially condensed” value (E. coli BL21 nucleoids [4]; after induction of expression or after exposure) of the same molecule?
**A.** The value was 30 to 45 min.
